Holding throughout (assay type): cell-based
The subject of one experiment is Namalwa cells. Kind of experiment: Cell viability, CELL TITER GLO assay (Promega), Namalwa cells. The method, then: (§1) FIGS. 2A to 2E show exemplary results of cell viability assay of compound 1. […] Results were expressed as a mean+/−SEM (n=3). RLU: Relative Luminescence Units.
(§2) The effect of compound 1 on cell viability in several cancer cell lines were determined. The cancer cell lines employed in the assay included those corresponding to hematopoietic and solid tumors. Exemplary results are shown in FIGS. 2A to 2E, where viability was assessed by CELL TITER GLO assay (Promega). Compound 1 was also submitted in a blinded fashion to the National Cancer Institute's CTD cancer cell line profiling pipeline, which enabled sensitivity profiling in about 800 cancer cell lines with annotation of specific genomic lesions that impart on human cancers (FIGS. 3A to 3B). […] The effects of other compounds described herein on cell viability in several cancer cell lines were also determined, and exemplary results are shown in Table 2, where viability was assessed by CELL TITER GLO assay (Promega).

Another experiment has as its system c-Myc. Description: c-Myc reporter gene assay (Qiagen) in HEK293T cells. The note with it: Homo sapiens, HEK-293T, 16 h, treatment 16 hours, Firefly/Renilla ratio. The method, then: Compound 1's activity against Myc was measured as a Firefly/Renilla ratio, using the Myc reporter assay (Qiagen) in HEK293T cells after treatment with compound 1 for 16 hours. Results are expressed as a mean+/−SD (n=3). SD: standard deviation.
Select compounds described herein that were SMM assay positives were evaluated in several versions of a c-Myc reporter gene assay, including a commercial assay from Qiagen. The compounds' activities against c-Myc were measured as a Firefly/Renilla ratio, using the Myc reporter assay (Qiagen) in HEK293T cells after treatment with the compounds for 16 hours.

In a further experiment the test system is Eu-Myc Arf −/− cells. Kind of experiment: Cell viability, CELL TITER GLO assay (Promega), Eu-Myc Arf −/− cells. As for the experimental part: as §2
A further experiment relates to NCIH1975 cells. Kind of experiment: Cell viability, CELL TITER GLO assay (Promega), NCIH1975 cells. The note with it: Homo sapiens, NCI-H1975. As for the experimental part: as §1, §2

Here are results for 19 molecules from US10017520B2, “Myc modulators and uses thereof” (Massachusetts Institute of Technology, priority 2014, dated 2018).

As to `OCc1ccc(Sc2nc3ccccc3[nH]2)o1` [Compound 40, (5-((1H-benzo[d]imidazol-2-yl)thio)furan-2-yl)methanol], the IC50 in the experiment on Namalwa cells is greater than 50 µM; in the experiment on c-Myc, greater than 40 µM; with Eu-Myc Arf −/− cells it was 14.1 µM; with NCIH1975 cells it was greater than 50 µM.

For `CC(C)N1C(=O)S/C(=C\c2ccc(Sc3nc4cccc(Cl)c4[nH]3)o2)C1=O` [Compound 28, (Z)-5-(5-(((7-chloro-H-benzo[d]imidazol-2-yl)thio)furan-2-yl)methylene)-3-isopropylthiazolidine-2,4-dione], the 50% inhibitory concentration (IC50) with Namalwa cells came out at 9.41 µM; with c-Myc, 0.98 µM; with Eu-Myc Arf −/− cells, 5.36 µM; in the experiment on NCIH1975 cells, 15.6 µM.

Turning to `O=C(CCCC[C@H]1SC[C@H]2NC(=O)N[C@H]21)NCCCN1C(=O)S/C(=C\c2ccc(Sc3nc4ccccc4[nH]3)o2)C1=O` [Compound 27, N-(3-((Z)-5-((5-((1H-benzo[d]imidazol-2-yl)thio)furan-2-yl)methylene)-2,4-dioxothiazolidin-3-yl)propyl)-5-((3aR,4R,6aS)-2-oxohexahydro-1H-thieno[3,4-d]imidazol-4-yl)pentanamide], the concentration for half-maximal inhibition (IC50) was 12.2 µM in the experiment on Namalwa cells, 2.28 µM in the experiment with c-Myc, 26 µM in the experiment with Eu-Myc Arf −/− cells and greater than 50 µM with NCIH1975 cells.

For the molecule `CC(C)N1C(=O)S/C(=C\c2ccc(Sc3nc4ccccc4o3)o2)C1=O` [Compound 6, (Z)-5-((5-(benzo[d]oxazol-2-ylthio)furan-2-yl)methylene)-3-isopropylthiazolidine-2,4-dione], the IC50 with Namalwa cells is 37.2 µM; in the experiment with c-Myc, 9.39 µM; in the experiment on Eu-Myc Arf −/− cells it was greater than 50 µM; in the experiment with NCIH1975 cells, greater than 50 µM.

Regarding `CC(C)N1C(=O)N/C(=C\c2ccc(Sc3nc4ccccc4[nH]3)o2)C1=O` [Compound 8, (Z)-5-((5-((1H-benzo[d]imidazol-2-yl)thio)furan-2-yl)methylene)-3-isopropylimidazolidine-2,4-dione], the half-inhibitory concentration (IC50) with Namalwa cells was greater than 50 µM; with c-Myc, 0.83 µM; in the experiment on Eu-Myc Arf −/− cells, 11.8 µM; in the experiment on NCIH1975 cells, greater than 50 µM.

In the case of `COc1cccc2nc(Sc3ccc(/C=C4\SC(=O)N(C(C)C)C4=O)o3)[nH]c12` [Compound 30, (Z)-3-isopropyl-5-((5-((7-methoxy-1H-benzo[d]imidazol-2-yl)thio)furan-2-yl)methylene)thiazolidine-2,4-dione], the IC50 with Namalwa cells was 72 µM; in the experiment on c-Myc, 1.63 µM; with Eu-Myc Arf −/− cells, 11.1 µM; in the experiment on NCIH1975 cells, 56.3 µM.

Take `CC(C)N1C(=O)S/C(=C\c2ccc(Sc3nc4ccccc4s3)o2)C1=O` [Compound 3, (Z)-5-((5-(benzo[d]thiazol-2-ylthio)furan-2-yl)methylene)-3-isopropylthiazolidine-2,4-dione]: the IC50 was 31.1 µM in the experiment on Namalwa cells, 5.72 µM in the experiment on c-Myc, greater than 50 µM in the experiment on Eu-Myc Arf −/− cells and greater than 50 µM in the experiment with NCIH1975 cells.

On to `O=C1C/C(=C\c2ccc(Sc3nc4ccccc4[nH]3)o2)C(=O)N1` [Compound 9, (E)-3-((5-((1H-benzo[d]imidazol-2-yl)thio)furan-2-yl)methylene)pyrrolidine-2,5-dione], for which the half-inhibitory concentration (IC50) is greater than 50 µM in the experiment with Namalwa cells, 9.02 µM in the experiment on c-Myc, greater than 50 µM in the experiment with Eu-Myc Arf −/− cells and greater than 50 µM in the experiment on NCIH1975 cells.

As to `Cc1cccc2nc(Sc3ccc(/C=C4\SC(=O)N(C(C)C)C4=O)o3)[nH]c12` [Compound 23, (Z)-3-isopropyl-5-((5-((7-methyl-1H-benzo[d]imidazol-2-yl)thio)furan-2-yl)methylene)thiazolidine-2,4-dione], the concentration for half-maximal inhibition (IC50) in the experiment on Namalwa cells is 33.9 µM; with c-Myc, 1.5 µM; in the experiment with Eu-Myc Arf −/− cells, 10.5 µM; in the experiment on NCIH1975 cells, 28.2 µM.

As for `O=C1NC(=O)/C(=C/c2ccc(Sc3nc4ccccc4[nH]3)o2)N1` [Compound 2, (Z)-5-((5-((1H-benzo[d]imidazol-2-yl)thio)furan-2-yl)methylene)imidazolidine-2,4-dione], the 50% inhibitory concentration (IC50) in the experiment with Namalwa cells is greater than 50 µM; with c-Myc, 7.5 µM; with Eu-Myc Arf −/− cells it was greater than 50 µM; in the experiment with NCIH1975 cells, greater than 50 µM.

Consider `CC(C)N1C(=O)S/C(=C\c2ccc(Sc3nc4ccc(C(F)(F)F)cc4[nH]3)o2)C1=O` [Compound 24, (Z)-3-isopropyl-5-((5-((6-(trifluoromethyl)-1H-benzo[d]imidazol-2-yl)thio)furan-2-yl)methylene)thiazolidine-2,4-dione], for which the IC50 came out at 7.94 µM in the experiment with Namalwa cells, 0.64 µM in the experiment on c-Myc, 11.2 µM in the experiment with Eu-Myc Arf −/− cells and 12.5 µM in the experiment with NCIH1975 cells.

`COc1ccc2nc(Sc3ccc(/C=C4\SC(=O)N(C(C)C)C4=O)o3)[nH]c2c1` [Compound 5, (Z)-3-isopropyl-5-((5-((6-methoxy-1H-benzo[d]imidazol-2-yl)thio)furan-2-yl)methylene)thiazolidine-2,4-dione]: the concentration for half-maximal inhibition (IC50) in the experiment on Namalwa cells was 42.1 µM; with c-Myc, 1.19 µM; with Eu-Myc Arf −/− cells it was greater than 50 µM; in the experiment with NCIH1975 cells, 34.5 µM.

As for `O=C(O)CN1C(=O)S/C(=C\c2ccc(Sc3nc4ccccc4[nH]3)o2)C1=O` [Compound 26], the half-maximal inhibitory concentration (IC50) in the experiment with Namalwa cells was greater than 50 µM; in the experiment on c-Myc, 33.6 µM; in the experiment with Eu-Myc Arf −/− cells, greater than 50 µM; in the experiment on NCIH1975 cells, greater than 50 µM.

Turning to `CC(C)N1C(=O)S/C(=C\c2ccc(Sc3nc4cccnc4[nH]3)o2)C1=O` [Compound 10, (Z)-5-((5-((3H-imidazo[4,5-b]pyridin-2-yl)thio)furan-2-yl)methylene)-3-isopropylthiazolidine-2,4-dione], the 50% inhibitory concentration (IC50) was greater than 50 µM in the experiment on Namalwa cells, 5.6 µM in the experiment on c-Myc, 33.1 µM in the experiment on Eu-Myc Arf −/− cells and greater than 50 µM in the experiment on NCIH1975 cells.

Turning to `CC(C)N1C(=O)S/C(=C\c2ccc(Sc3nc4cc(Cl)c(Cl)cc4[nH]3)o2)C1=O` [Compound 25, (Z)-5-((5-((5,6-dichloro-1H-benzo[d]imidazol-2-yl)thio)furan-2-yl)methylene)-3-isopropylthiazolidine-2,4-dione], the IC50 in the experiment on Namalwa cells is 3.95 µM; in the experiment on c-Myc, 0.63 µM; in the experiment on Eu-Myc Arf −/− cells it was 5.51 µM; in the experiment on NCIH1975 cells, 7.88 µM.

In the case of `CC(C)N1C(=O)S/C(=C\c2ccc(Sc3nc4ccc(Cl)cc4[nH]3)o2)C1=O` [Compound 4, (Z)-5-((5-((6-chloro-1H-benzo[d]imidazol-2-yl)thio)furan-2-yl)methylene)-3-isopropylthiazolidine-2,4-dione], the IC50 in the experiment with Namalwa cells was 12.4 µM; in the experiment with c-Myc, 0.79 µM; in the experiment on Eu-Myc Arf −/− cells, 11 µM; in the experiment with NCIH1975 cells it was 17.3 µM.

`CC(C)c1ccc2nc(Sc3ccc(/C=C4\SC(=O)N(C(C)C)C4=O)o3)[nH]c2c1` [Compound 29, (Z)-3-isopropyl-5-((5-((6-isopropyl-1H-benzo[d]imidazol-2-yl)thio)furan-2-yl)methylene)thiazolidine-2,4-dione]: the half-inhibitory concentration (IC50) in the experiment on Namalwa cells worked out at 15.3 µM; with c-Myc, 0.64 µM; in the experiment with Eu-Myc Arf −/− cells, 13.1 µM; in the experiment with NCIH1975 cells it was 19.9 µM.

As for `CC(=O)c1ccc2nc(Sc3ccc(/C=C4\SC(=O)N(C(C)C)C4=O)o3)[nH]c2c1` [Compound 58, (Z)-5-((5-((6-acetyl-H-benzo[d]imidazol-2-yl)thio)furan-2-yl)methylene)-3-isopropylthiazolidine-2,4-dione], the half-inhibitory concentration (IC50) with c-Myc worked out at 0.26 µM.

As for `CC(C)N1C(=O)N/C(=C\c2ccc(Sc3nc4ccc(Cl)cc4[nH]3)o2)C1=O` [Compound 22, (Z)-5-((5-((6-chloro-1H-benzo[d]imidazol-2-yl)thio)furan-2-yl)methylene)-3-isopropylimidazolidine-2,4-dione], the IC50 turned out to be 16.5 µM with Namalwa cells, 1.05 µM with c-Myc, 6.09 µM in the experiment on Eu-Myc Arf −/− cells and 45.3 µM with NCIH1975 cells.
